{
  "source": "patent US11352382B2",
  "about": "“Mito-lonidamine, compositions and methods of use” (THE MEDICAL COLLEGE OF WISCONSIN, INC., priority 2018, dated 2022)",
  "key": {"[1]": {"test_system": "A/J mice", "test": "8-week toxicology study (maximum tolerated dose, Modified Irwin Screen)", "type": "in vivo, mouse", "source_text": "Maximum tolerated dose (MTD) of Mito-LON. We conducted an 8-week toxicology study to evaluate possible toxicity of Mito-LON, especially on neural and muscle cells using a Modified Irwin Screen, developed as a comprehensive observational battery to broadly screen for central nervous system (CNS) effects of agents. Modifications of this test are extensively used in the pharmaceutical industry and in academic research to identify changes in neurological function as a result of agent intoxication, neurotoxicity, or genetic manipulation. The screen used here employs 35 distinct measurements to assess sensorimotor, neurological, and autonomic nervous system function^78. The effective dose (ED) of Mito-LON is designated as 7.5 μmol/kg based on our preliminary data (FIGS. 24 & 25)."}, "[2]": {"test_system": "Pancreatic cancer cells", "test": "Anti-proliferative effects in pancreatic cancer cells (number of cells over time)", "type": "cell-based, human", "experimental": "Pancreatic cancer cells were treated with either LND or Mito-LND at varying concentrations and the number of cells was assayed over time."}, "[3]": {"target": "T1, mitochondrial complex II (Homo sapiens, UniProt O14521+P21912+P31040+Q99643)", "T1 construct": "we measured the activity of mitochondrial complexes in H2030BrM3 cells (NSCLC cell line); endogenous in cells; host or cells: H2030BrM3", "T1 sequence (P31040 43-664)": "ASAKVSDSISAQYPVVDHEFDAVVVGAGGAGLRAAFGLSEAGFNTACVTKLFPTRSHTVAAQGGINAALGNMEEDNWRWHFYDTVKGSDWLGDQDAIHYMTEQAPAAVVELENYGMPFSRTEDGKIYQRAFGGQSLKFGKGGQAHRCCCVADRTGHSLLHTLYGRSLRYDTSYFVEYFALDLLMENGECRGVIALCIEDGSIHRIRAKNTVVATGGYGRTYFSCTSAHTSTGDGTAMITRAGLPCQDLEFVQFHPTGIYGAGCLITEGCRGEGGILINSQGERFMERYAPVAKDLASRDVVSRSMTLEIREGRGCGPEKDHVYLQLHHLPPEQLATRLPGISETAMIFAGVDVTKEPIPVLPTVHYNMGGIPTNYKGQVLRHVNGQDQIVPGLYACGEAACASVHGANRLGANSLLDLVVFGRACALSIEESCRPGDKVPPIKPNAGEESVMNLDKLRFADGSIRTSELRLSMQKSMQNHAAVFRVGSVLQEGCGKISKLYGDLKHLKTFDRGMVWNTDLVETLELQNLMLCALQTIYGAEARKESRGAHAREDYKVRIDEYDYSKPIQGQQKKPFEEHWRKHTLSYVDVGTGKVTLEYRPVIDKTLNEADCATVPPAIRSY", "T1 sequence (P21912 29-280)": "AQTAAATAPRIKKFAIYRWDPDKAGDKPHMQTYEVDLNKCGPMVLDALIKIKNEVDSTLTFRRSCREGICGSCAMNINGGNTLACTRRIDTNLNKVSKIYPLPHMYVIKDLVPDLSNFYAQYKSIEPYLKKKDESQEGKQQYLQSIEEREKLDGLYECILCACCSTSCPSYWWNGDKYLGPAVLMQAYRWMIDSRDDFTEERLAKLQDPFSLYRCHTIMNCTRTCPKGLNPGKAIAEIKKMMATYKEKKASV", "T1 sequence (Q99643 30-169)": "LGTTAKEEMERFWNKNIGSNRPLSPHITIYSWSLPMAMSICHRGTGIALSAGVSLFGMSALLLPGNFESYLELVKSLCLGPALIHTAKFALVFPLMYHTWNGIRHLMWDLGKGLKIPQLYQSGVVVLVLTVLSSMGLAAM", "T1 sequence (O14521 57-159)": "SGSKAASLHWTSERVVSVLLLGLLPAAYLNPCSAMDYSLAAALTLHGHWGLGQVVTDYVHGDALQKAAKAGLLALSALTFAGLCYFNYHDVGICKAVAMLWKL", "test": "Mitochondrial complex II activity (OCR) in permeabilized H2030BrM3 cells after 24 h pretreatment", "type": "cell-based", "source_text": "LON and Mito-LON inhibit mitochondrial complex I activity. Mito-LON inhibited cellular respiration (oxygen consumption rate, OCR) at >100-fold lower concentration than LON in intact lung cancer cells (FIG. 9). Both basal respiration and the response to mitochondrial stressors (oligomycin, dinitrophenol) were diminished by Mito-LON (not shown). To investigate the mechanism of mitochondrial inhibition, we measured the activity of mitochondrial complexes in H2030BrM3 cells (NSCLC cell line). The cell membrane was permeabilized, and OCR was measured upon addition of substrates and inhibitors of mitochondrial complexes I-IV (FIG. 9A). These studies established the optimal use of permeabilized cells for complex activity assays.^54 Next, cells were pretreated with LON and Mito-LON for 24 h and experiments performed as in FIG. 9A. […] We hypothesize that inhibition of mitochondrial complexes I and II is the predominant mechanism for antiproliferative effects of Mito-LON on lung cancer cells."}, "[4]": {"test_system": "H2030BrM3 orthotopic lung adenocarcinoma in nude mice", "test": "Orthotopic lung tumor mouse model", "type": "in vivo", "experimental": "Inhibitory effects of Mito-LON in an orthotopic lung tumor mouse model. We conducted a pilot study using an orthotopic model of lung adenocarcinoma (H2030BrM3 cells) in nude mice. Cells (1×10^6 cells/50 μg of growth factor-reduced Matrigel in 50 μL of RPMI-1640) were injected into the lung. One week after injection, mice were treated with the same dose of LON or Mito-LON (7.5 μmol/kg), or vehicle (corn oil), by oral gavage 5 times/wk for 3 wks."}, "[5]": {"test_system": "H2030 and H2030BrM3 cells", "test": "Autophagy and mitophagy markers in cell lysates, MDC staining", "type": "cell-based, human", "experimental": "Mito-LON induces autophagic cell death in human lung cancer cell lines and lung-derived brain metastatic lines. To investigate potential mechanisms underlying Mito-LON's induction of cancer cell death that result from its inhibition of mitochondrial respiration and induction of ROS, we analyzed lysates of cells treated with Mito-LON [2.0 μM] for 0, 6, 24 and 48 h. Lysates were probed for proteins targeting energetics, apoptosis and autophagy, including selective mitophagy markers. Our data (FIG. 19) show Mito-LON treatment [2.0 μM] modulates key autophagy proteins, including specific mitophagy receptors, adaptor proteins and energy sensing molecules in H2030 lung cancer cells and the corresponding brain metastatic line (H2030BrM3). LC3, microtubule-associated protein light chain 3, is critical for cargo recruitment. The LC3 precursor is modified via an ubiquitination-like system generating soluble LC3-I, which is further modified to LC3-II, a membrane-bound phospholipid conjugate upon autophagy induction. LC3-II integrates into the autophagosome membrane and is considered a reliable early marker of autophagy induction. Mito-LON treatment (FIG. 19A) increased levels of LC3-II 1.9 to 4.4-fold across cell lines, with sustained modulation through 48 h. The LC3-interacting region (LIR) serves as a mechanistic basis for selective autophagy, including mitophagy which specifically targets degradation of damaged mitochondria via engagement of adaptor proteins (p62, NBR1, OPTN, BNIP3L). We evaluated the effects of Mito-LON on ubiquitin-binding mitophagy receptors (p62, NDP52, NBR1) which also indicate autophagic flux versus potential impairment of autophagosome turnover. […] Changes were consistently bimodal in Mito-LON treated H2030 cells, potentially due to P62's dual role in mitophagy, both in clustering of mitochondria as well as downstream degradation. […] PINK1 was included as an indicator of PINK1-Parkin dependent mitophagy. Basal levels of PINK1 are normally low with increases due to mitochondrial depolarization, damage and ATP alterations, as noted in both cell lines. Beclin1 (BECN1), an autophagy regulator and potential tumor suppressor gene product in multiple cancers, including NSCLC.\nThus, autophagy induction in the lung derived brain metastatic line may be BECN1-independent. […] NRF2, a major regulator of cellular stress responses, was not detectable in either cell line. FIG. 19B further supports autophagy induction by Mito-LON. […] Specifically, Mito-LON alters phosphorylation events and activating partners in parallel. As an example, P-P70S6K^Thr389 phosphorylates mTOR^Ser2448; both reduced in Mito-LON treated cells. Similarly, ULK is activated by AMPK, and both phosphoproteins are decreased by Mito-LON, as is P-PTEN."}, "[6]": {"test_system": "PC9BrM3 and H2030BrM3 brain metastasis lung cancer cell lines", "test": "Boyden chamber (transwell) invasion assay", "type": "cell-based", "details": "Homo sapiens, H2030-BrM3, read-out: inhibitory effect on invasion when used alone", "source_text": "Mito-LON inhibits migration and invasion of brain metastatic human lung cancer cells. To investigate the potential of Mito-LON and LON for lung cancer metastasis, we first tested its effects in vitro via the Boyden chamber invasion assay using PC9BrM3 and H2030BrM3 brain metastasis lung cancer cell lines."}, "[7]": {"details": "7.5 μmol/kg oral gavage 5 times/wk for 3 wks, nude mice"}},
  "data": [
    {"smiles": "O=C(NCCCCCCCCCC[P+](c1ccccc1)(c1ccccc1)c1ccccc1)c1nn(Cc2ccc(Cl)cc2Cl)c2ccccc12", "note": "[Mito-LON, Mito10-lonidamine]", "values": [
      {"measurement": "toxicity overall", "setting": "[1]; doses up to 50× ED", "value": "did not show any toxicity"},
      {"measurement": "body weights (and organ weights) and 35 Modified Irwin Screen metrics versus control", "setting": "[1]; up to 50× ED, A/J mice, 8-weeks treatment", "value": "didn't observe any significant differences"},
      {"measurement": "toxic effects in neural tissue and muscles by histopathology, liver function (serum AST and ALT)", "setting": "[1]; up to 50× ED, A/J mice, 8 weeks", "value": "No toxic effects"},
      {"measurement": "IC50", "setting": "[2]; Homo sapiens, Pancreatic cancer cell, read-out: IC50, inhibiting the proliferation of cancer cells", "value": 640, "unit": "nM"},
      {"measurement": "fold more effective than LND in anti-proliferative effects", "setting": "[2]; pancreatic cancer cells, FIG. 6", "value": "~500", "unit": "fold"},
      {"measurement": "fold more potent than LON for complex II", "setting": "[3]; 24 h pretreatment, FIG. 9B", "value": 144, "unit": "fold"},
      {"measurement": "Ki", "setting": "[3]; FIG. 9", "value": 2700, "unit": "nM"},
      {"measurement": "IC50", "setting": "[3]; H2030BrM3 lung cancer cells, FIG. 9, read-out: IC50, respiratory complex II", "value": 2700, "unit": "nM"},
      {"measurement": "reduction of lymph node metastasis", "setting": "[4]; [7]", "value": "> 50", "unit": "%"},
      {"measurement": "reduction of tumor progression", "setting": "[4]; [7]", "value": "> 70", "unit": "%"},
      {"measurement": "liver histopathology (H&E sections)", "setting": "[4]; 7.5 μmol/kg oral gavage, 3 wks", "value": "no histopathologic signs of toxicity"},
      {"measurement": "effective dose (ED)", "setting": "[4]; designated from preliminary data (FIGS. 24 & 25)", "value": 7.5, "unit": "µmol/kg"},
      {"measurement": "NDP52", "setting": "[5]; 2.0 μM", "value": "paralleled P62 changes"},
      {"measurement": "Beclin-1 levels", "setting": "[5]; 2.0 μM, H2030 and H2030-BrM3 cells", "value": "increased Beclin-1 levels in H2030 cells but not in H2030-BrM3 cells"},
      {"measurement": "autophagic vacuolization (bright field)", "setting": "[5]; 2.0 μM, H2030 cells", "value": "markedly increased vacuolization"},
      {"measurement": "monodansylcadaverine (MDC) staining", "setting": "[5]; 2.0 μM, H2030 cells", "value": "stained positive for MDC"},
      {"measurement": "P62", "setting": "[5]; 2.0 μM, both cell lines", "value": "modulated P62 in both cell lines"},
      {"measurement": "autophagy-initiating energy-sensing proteins of the AKT/mTOR signaling pathway", "setting": "[5]; FIG. 19C", "value": "deactivates"},
      {"measurement": "RAB7 levels", "setting": "[5]; H2030BrM3 cells", "value": "increased levels of RAB7"},
      {"measurement": "inhibition at 0.6 µM", "setting": "[6]", "value": "< 10", "unit": "%"}
    ]}
  ]
}
